# Results published in patent publication US10421750B2, “Substituted morpholine derivatives having activity against pain” (ESTEVE PHARMACEUTICALS, S.A., priority 2015, dated 2019).
# Molecular target: human σ1 receptor (Homo sapiens (Human), UniProt Q99720)
# Assay: Human σ1 receptor radioligand assay ([3H](+)-pentazocine, transfected HEK-293 membranes)
# Details: binding to the σ1 receptor expressed as Ki, [3H](+)-pentazocine 5 nM
# Description: Human σ1 Receptor Radioligand Assay
# To investigate binding properties of test compounds to human σ1 receptor, transfected HEK-293 membranes and [^3H](+)-pentazocine (Perkin Elmer, NET-1056), as the radioligand, were used. The assay was carried out with 7 μg of membrane suspension, 5 nM of [^3H](+)-pentazocine in either absence or presence of either buffer or 10 μM Haloperidol for total and non-specific binding, respectively. Binding buffer contained Tris-HCl 50 mM at pH 8. Plates were incubated at 37° C. for 120 minutes. After the incubation period, the reaction mix was then transferred to MultiScreen HTS, FC plates (Millipore), filtered and plates were washed 3 times with ice-cold 10 mM Tris-HCL (pH7.4). Filters were dried and counted at approximately 40% efficiency in a MicroBeta scintillation counter (Perkin-Elmer) using EcoScint liquid scintillation cocktail
# Sequence of human σ1 receptor (Q99720 whole entry): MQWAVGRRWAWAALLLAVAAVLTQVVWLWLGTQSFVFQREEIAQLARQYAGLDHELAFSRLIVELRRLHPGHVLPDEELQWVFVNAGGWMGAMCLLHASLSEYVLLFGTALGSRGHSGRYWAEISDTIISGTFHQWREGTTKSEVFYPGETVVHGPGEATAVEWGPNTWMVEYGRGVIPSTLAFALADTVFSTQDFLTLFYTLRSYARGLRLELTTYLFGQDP
row,Structure (SMILES),Ki [nM]
1,"COc1ccc(CN2CC(C3CCN(CCc4ccccc4)CC3)OC3(CC3)C2=O)cc1 (centres unmarked) [Example 1, 7-(4-Methoxybenzyl)-5-(1-phenethylpiperidin-4-yl)4-oxa-7-azaspiro[2.5]octan-8-one]",≥ 500
2,"O=C(c1ccccc1)N1CC(C2CCN(CCc3ccccc3)CC2)OC2(CC2)C1 (centres unmarked) [Example 2, (5-(1-phenethylpiperidin-4-yl)-4-oxa-7-azaspiro[2.5]octan-7-yl)(phenyl)methanone]",< 500
3,"COc1ccc(CN2CC(C3CCN(Cc4ccccc4)CC3)OC3(CC3)C2=O)cc1 (centres unmarked) [Example 3, 5-(1-Benzylpiperidin-4-yl)-7-(4-methoxybenzyl)-4-oxa-7-azaspiro[2.5]octan-8-one]",< 500
4,"O=C(c1ccccc1)N1CC(C2CCN(Cc3ccccc3)CC2)OC2(CC2)C1 (centres unmarked) [Example 4, (5-(1-benzylpiperidin-4-yl)-4-oxa-7-azaspiro[2.5]octan-7-yl)(phenyl)methanone]",< 100
5,"CCN1CC(C2CCN(Cc3ccccc3)CC2)OC2(CC2)C1=O (centres unmarked) [Example 5, 5-(1-benzylpiperidin-4-yl)-7-ethyl-4-oxa-7-azaspiro[2.5]octan-8-one]",< 100
6,"CCN1CCC(C2CN(Cc3ccc(OC)cc3)C(=O)C3(CC3)O2)CC1 (centres unmarked) [Example 6, 5-(1-ethylpiperidin-4-yl)-7-(4-methoxybenzyl)-4-oxa-7-azaspiro[2.5]octan-8-one]",≥ 500
7,"CCN1CC(C2CCN(CCc3ccccc3)CC2)OC2(CC2)C1=O (centres unmarked) [Example 7, 7-Ethyl-5-(1-phenethylpiperidin-4-yl)-4-oxa-7-azaspiro[2.5]octan-8-one]",< 500
8,"CC(C)N1CC(C2CCN(CCc3ccccc3)CC2)OC2(CC2)C1=O (centres unmarked) [Example 8, 7-isopropyl-5-(1-phenethylpiperidin-4-yl)-4-oxa-7-azaspiro[2.5]octan-8-one]",< 500
9,"O=C1N(c2ccccc2)CC(C2CCN(CCc3ccccc3)CC2)OC12CC2 (centres unmarked) [Example 9, 5-(1-Phenethylpiperidin-4-yl)-7-phenyl-4-oxa-7-azaspiro[2.5]octan-8-one]",≥ 500
10,"O=C1N(c2ccccc2)CC(C2CCN(Cc3ccccc3)CC2)OC12CC2 (centres unmarked) [Example 10, 5-(1-benzylpiperidin-4-yl)-7-phenyl-4-oxa-7-azaspiro[2.5]octan-8-one]",< 500
11,"CCN1CC(C2CCN(CCc3ccccc3)CC2)OC2(CC2)C1 (centres unmarked) [Example 11, 7-Ethyl-5-(1-phenethylpiperidin-4-yl)-4-oxa-7-azaspiro[2.5]octane]",< 500
12,"COc1ccc(CN2CC(C3CCN(Cc4ccccc4)CC3)OC3(CC3)C2)cc1 (centres unmarked) [Example 12, 5-(1-benzylpiperidin-4-yl)-7-(4-methoxybenzyl)-4-oxa-7-azaspiro[2.5]octane]",< 100
13,"COc1ccc(CN2CC(C3CCN(CCc4ccccc4)CC3)OC3(CC3)C2)cc1 (centres unmarked) [Example 13, 7-(4-methoxybenzyl)-5-(1-phenethylpiperidin-4-yl)-4-oxa-7-azaspiro[2.5]octane]",≥ 500
14,"CCN1CC(C2CCN(Cc3ccccc3)CC2)OC2(CC2)C1 (centres unmarked) [Example 14, 5-(1-benzylpiperidin-4-yl)-7-ethyl-4-oxa-7-asazaspiro[2.5]octane]",< 100
15,"COc1ccc(CN2CC(C3CCN(CC(C)C)CC3)OC3(CC3)C2=O)cc1 (centres unmarked) [Example 15, 5-(1-isobutylpiperidin-4-yl)-7-(4-methoxybenzyl)-4-oxa-7-azaspiro[2.5]octan-8-one]",≥ 500
16,"COc1ccc(CN2CC(C3CCN(CCC(C)C)CC3)OC3(CC3)C2=O)cc1 (centres unmarked) [Example 16, 5-(1-isopentylpiperidin-4-yl)-7-(4-methoxybenzyl)-4-oxa-7-azaspiro[2.5]octan-8-one]",< 500

# The next lines start with the values.
row,Ki [nM],Structure (SMILES)
1,< 500,"COc1ccc(CN2CC(C3CCN(Cc4ccccc4)CC3)OCC2=O)cc1 (centres unmarked) [Example 21, 6-(1-benzylpiperidin-4-yl)-4-(4-methoxybenzyl)morpholin-3-one]"
2,< 500,"CCN1CC(C2CN(CCC(C)C)C2)OC2(CC2)C1=O (centres unmarked) [Example 22, 7-ethyl-5-(1-isopentylazetidin-3-yl)-4-oxa-7-azaspiro[2.5]octan-8-one]"
3,≥ 500,"CCN1C[C@@H](C2CCN(Cc3ccccc3)CC2)O[C@@H](C)C1=O [Example 23, (2S,6R)-6-(1-benzylpiperidin-4-yl)-4-ethyl-2-methylmorpholin-3-one]"
4,≥ 500,"CCN1C[C@H](C2CCN(Cc3ccccc3)CC2)O[C@@H](C)C1=O [Example 24, (2S,6S)-6-(1-benzylpiperidin-4-yl)-4-ethyl-2-methylmorpholin-3-one]"
5,≥ 500,"CCN1C[C@@H](C2CCN(Cc3ccccc3)CC2)O[C@H](C)C1=O [Example 25, (2R,6R)-6-(1-benzylpiperidin-4-yl)-4-ethyl-2-methylmorpholin-3-one]"
6,≥ 500,"CCN1C[C@H](C2CCN(Cc3ccccc3)CC2)O[C@H](C)C1=O [Example 26, (2R,6S)-6-(1-benzylpiperidin-4-yl)-4-ethyl-2-methylmorpholin-3-one]"
7,≥ 500,"CCN1C[C@@H](C2CCN(Cc3ccc(F)cc3)CC2)O[C@@H](C)C1=O [Example 27, (2S,6R)-4-ethyl-6-(1-(4-fluorobenzyl)piperidin-4-yl)-2-methylmorpholin-3-one]"
8,≥ 500,"CCN1C[C@H](C2CCN(Cc3ccc(F)cc3)CC2)O[C@@H](C)C1=O [Example 28, (2S,6S)-4-ethyl-6-(1-(4-fluorobenzyl)piperidin-4-yl)-2-methylmorpholin-3-one]"
9,≥ 500,"CCN1C[C@@H](C2CCN(Cc3ccc(F)cc3)CC2)O[C@H](C)C1=O [Example 29, (2R,6R)-4-ethyl-6-(1-(4-fluorobenzyl)piperidin-4-yl)-2-methylmorpholin-3-one]"
10,≥ 500,"CCN1C[C@H](C2CCN(Cc3ccc(F)cc3)CC2)O[C@H](C)C1=O [Example 30, (2R,6S)-4-ethyl-6-(1-(4-fluorobenzyl)piperidin-4-yl)-2-methylmorpholin-3-one]"
11,≥ 500,"CCN1C[C@@H](C2CCN(Cc3ccc(C#N)cc3)CC2)O[C@@H](C)C1=O [Example 31, 4-((4-((2R,6S)-4-ethyl-6-methyl-5-oxomorpholin-2-yl)piperidin-1-yl)methyl)benzonitrile]"
12,≥ 500,"CCN1C[C@H](C2CCN(Cc3ccc(C#N)cc3)CC2)O[C@@H](C)C1=O [Example 32, 4-((4-((2S,6S)-4-ethyl-6-methyl-5-oxomorpholin-2-yl)piperidin-1-yl)methyl)benzonitrile]"
13,≥ 500,"CCN1C[C@@H](C2CCN(Cc3ccc(C#N)cc3)CC2)O[C@H](C)C1=O [Example 33, 4-((4-((2R,6R)-4-ethyl-6-methyl-5-oxomorpholin-2-yl)piperidin-1-yl)methyl)benzonitrile]"
14,≥ 500,"CCN1C[C@H](C2CCN(Cc3ccc(C#N)cc3)CC2)O[C@H](C)C1=O [Example 34, 4-((4-((2S,6R)-4-ethyl-6-methyl-5-oxomorpholin-2-yl)piperidin-1-yl)methyl)benzonitrile]"
15,≥ 500,"CCN1CC(C2CCN(Cc3ccc(F)cc3)CC2)OC2(CC2)C1=O (centres unmarked) [Example 35, 7-ethyl-5-(1-(4-fluorobenzyl)piperidin-4-yl)-4-oxa-7-azaspiro[2.5]octan-8-one]"
16,≥ 500,"CCN1CC(C2CCN(Cc3ccc(C#N)cc3)CC2)OC2(CC2)C1=O (centres unmarked) [Example 36, 4-((4-(7-ethyl-8-oxo-4-oxa-7-azaspiro[2.5]octan-5-yl)piperidin-1-yl)methyl)benzonitrile]"
